Results reported in US20060063794A1, “Method of attenuating graft rejection” (Fujisawa Pharmaceutical Co., Ltd., priority 2004, published 2006).

Assays:
rat cardiac allografts = details: rats, cited from earlier work
[1] = Same trial: FK778 plasma trough levels; type: in vivo, human
Description: (§1) Patients in group H received loading doses of 600 mg/day on Day 1 and 2 and continued on 150 mg/day. This was the maximum permitted daily dose of FK778. Patients in group L received 600 mg/day only on Day 1 and continued on 75 mg/day. Dose adaptations were to be performed from day 7 onwards. Subsequent doses were adjusted to maintain plasma trough levels of FK778 in the target ranges of 100-200 μg/mL (H) and 10-100 μg/mL (L).
The assay of FK778 trough concentrations were centrally performed in an independent laboratory and an independent unblinded pharmacokinetic (PK)-panel (Covance, UK) used the plasma FK778 levels to make dose adjustments when necessary. In addition, dummy adjustments in the placebo arm were performed. Concentrations were determined initially every other day, from day 14-42 weekly, and afterwards every other week.

[2] = system: human kidney transplant recipients; assay: Multi-center, randomized, double-blind trial of FK778/Tacrolimus/steroids: acute rejection and graft survival; type: in vivo
Description: Patients were randomised to a 3-month treatment regimen with high-level FK778/Tacrolimus/corticosteroid (arm 1), low-level FK778/Tacrolimus/corticosteroid (arm 2), or placebo/Tacrolimus/corticosteroid (arm 3). FK778 and placebo were administered in a double-blind manner. Patients in arm 1 received two doses of 600 mg/day and continued on 150 mg/day. Patients in arm 2 received one dose of 600 mg/day and continued on 75 mg/day. Subsequent doses were adjusted to maintain trough levels of FK778 in the range of 100-200 μg/mL (arm 1) and 10-100 μg/mL (arm 2). Trough levels of FK778 were centrally determined. Doses of FK778 were adjusted according to the recommendations of an independent panel.
Treatment of adults of both genders was studied in a multi-center, randomized, double-blind trial. Three groups were studied. Group H was treated with high dose FK778/tarcolimus/steroids; Group L was treated with low dose FK778/tarcolimus/steroids; and Group P was treated with placebo/Tacrolimus/steroids. Tacrolimus was given as an initial dose of 0.2 mg/kg per os divided into two equal doses, one pre-operatively and one post-operatively. Subsequent doses were adjusted to reach target Tacrolimus whole blood trough concentrations of 10-20 ng/mL on Days 0-30, and 5-15 ng/mL on Days 31-84. Methylprednisolone was perioperatively administered at 1000 mg i.v. or less and 125 mg on Day 1. A prednisolone equivalent was given orally at 20 mg from Day 2-14, at 15 mg on Day 15-28, at 10 mg from Day 29-42 and 5 mg from Day 43-84. Oral tablets of FK778/placebo were administered in a double-blind manner.
as §1
All visits and time points were calculated from the day of reperfusion (Day 0). […] Periods of dialysis dependence and hospitalization were recorded, as were details of medication. In case of a clinically apparent rejection, a renal graft biopsy was taken and classified by the local histopathologist according to the Banff 97 criteria (Racusen et al., Kidney Int. 55: 713-723 (1999)). Type I, II and III acute rejections (AR) were reported. AR was classified as corticosteroid-sensitive or corticosteroid-resistant. An independent histopathologist who was blinded to treatment and local biopsy readings performed the central biopsy review.
The primary efficacy endpoint was the incidence of AR proven by local biopsy over the first 12 weeks. […] For being defined as a patient whose target level was achieved, the average trough level of this patient had to be within the target range at week 2. On a continuous basis safety was assessed by patient and graft survival, adverse event monitoring, routine laboratory evaluations and vital signs. Treatment emergent adverse events were coded according to the MedDRA dictionary (version 5.0).
In this example, all tests were performed one-sided and pair-wise without alpha-adjustment for multiple testing using a 10% significance level. Statistical power was calculated for the analysis of the primary endpoint. A difference of 20% between groups in the incidence of biopsy-proven AR was considered a clinically meaningful difference. A reasonable expectation for the estimated rate of patients experiencing biopsy-proven AR in the Tacrolimus/steroid arm was 35%. Allowing for a dropout rate of 11%, it was estimated that with the outlined statistical methods the sample size of 45 evaluable patients per treatment arm was large enough to achieve a power of ≧80%. Thus, it was planned to enroll 135 patients using a 1:1:1 randomisation. The primary endpoint was analysed using chi-squared tests. […]

CMV = details: animal models; cited from earlier work
[3] = All patients, High level FK778 (group H)
[4] = All patients, Low level FK778 (group L)

C#CCC/C(O)=C(\C#N)C(=O)Nc1ccc(C(F)(F)F)cc1 [FK778, (2Z)-2-cyano-3-hydroxy-N-[4-(trifluromethyl)phenyl]-2-hepten-6-ynamide]
Prolongation of graft survival (rat cardiac allografts; 20 mg/kg for ten days): about two | Median graft survival (rat cardiac allografts; MNA 715 (20/mg/kg) combined with Tacrolimus (2.4 mg/kg) for ten days): 19 days | Maximum FK778 plasma trough level ([1]; group H, Day 3): 142.4 µg/mL | Median FK778 plasma trough level ([1]; group H, Day 3): 84.34 µg/mL | Mean FK778 plasma trough level ([1]; group H, Day 3, after loading doses 600 mg/day on Day 1 and 2): 86.97 ± 26.23 µg/mL | Mean FK778 plasma trough level ([1]; group H, Day 7): 93.58 µg/mL | Mean FK778 plasma trough level ([1]; group H, Day 28): 175.66 µg/mL | Median FK778 plasma trough level ([1]; group L, Day 2): 41.35 µg/mL | Mean FK778 plasma trough level ([1]; group L, Day 2, after loading dose 600 mg/day on Day 1): 38.30 ± 21.14 µg/mL | Mean FK778 plasma trough level ([1]; group L, Day 11): 31.53 ± 21.26 µg/mL | Median FK778 plasma trough level ([1]; group L, Day 11): 28.35 µg/mL | Mean FK778 plasma trough level ([1]; group L, Day 42): 62.36 ± 27.60 µg/mL | Median FK778 plasma trough level ([1]; group L, Day 42): 59.36 µg/mL | Corticosteroid-resistant AR (%) [2, 3]: (8.2) % | Corticosteroid-resistant AR, number of patients [2, 3]: 4 | Corticosteroid-sensitive AR (%) [2, 3]: (22.4) % | Corticosteroid-sensitive AR, number of patients [2, 3]: 11 | Overall AR proven by central biopsy, number of patients ([2]; All patients, High level FK778 (group H), N=49): 13 | Overall AR proven by local biopsy, number of patients ([2]; All patients, High level FK778 (group H), N=49, first 12 weeks): 14 | Corticosteroid-resistant AR (%) [2, 4]: (11.1) % | Corticosteroid-resistant AR, number of patients [2, 4]: 6 | Corticosteroid-sensitive AR (%) [2, 4]: (14.8) % | Corticosteroid-sensitive AR, number of patients [2, 4]: 8 | Overall AR proven by central biopsy, number of patients ([2]; All patients, Low level FK778 (group L), N=54): 14 | Overall AR proven by local biopsy, number of patients ([2]; All patients, Low level FK778 (group L), N=54, first 12 weeks): 14 | Overall AR proven by central biopsy, number of patients ([2]; Patients reaching target levels within second week, High level FK778 (subgroup H), N=26): 2 | Overall AR proven by central biopsy, number of patients ([2]; Patients reaching target levels within second week, Low level FK778 (subgroup L), N=48): 13 | Kaplan-Meier estimated rate of patients free from centrally determined biopsy proven acute rejection, higher compared with placebo ([2]; after 12 weeks, high and low level FK778): 12.1 % percentage points | Graft survival at month 4 ([2]; arm 1, high-level FK778/Tacrolimus/corticosteroid, n=49): 89.7% | Graft survival at month 4 ([2]; arm 2, low-level FK778/Tacrolimus/corticosteroid, n=54): 88.8% | Difference in incidence of AR by central biopsy review versus placebo ([2]; group H vs. P): 12.6% | Difference in incidence of AR proven by local biopsy versus placebo ([2]; group H vs. P): 6.2% | Graft survival estimate (Kaplan-Meier method) at Week 16 ([2]; group H, high level FK778): 89.7% | Difference in incidence of AR by central biopsy review versus placebo ([2]; group L vs. P): 13.2% | Difference in incidence of AR proven by local biopsy versus placebo ([2]; group L vs. P): 8.9% | Graft survival estimate (Kaplan-Meier method) at Week 16 ([2]; group L, low level FK778): 88.8% | Effect on CMV disease (CMV): attenuates CMV disease
